# Measurements taken from patent publication US10092515B2, “Liposomal formulations of polymyxin B and uses thereof” (University of Houston System, priority 2012, dated 2018).
# Read-outs that look alike come from different tables or passages of the source. Where a SMILES comes first, the peptide text is derived from it. Bridges are numbered along the chain shown (N, C = ends). [ ]: non-standard residue; d: D form. The star is where a group is joined. Heptanoyl(6-Me) = CC(C)CCCCC(=O)*; X1 = CC[C@H](C)CCCCC(=O)*; Octanoyl = CCCCCCCC(=O)*; Dab = NCC[C@H](N)C(=O)O
# Columns and labels:
# [1] = Epithelial lining fluid (ELF) pharmacokinetics after intravenous polymyxin B liposomes or aqueous solution (USP); type: in vivo, Swiss Webster mice; details: for AUC(0-t): female, ND4 Swiss Webster, n = 4, read-out: AUC0-6 h, epithelial lining fluid
# Experimental: (§1) The animal protocol was approved by the University of Houston Institutional Animal Care and Use Committee. The animals received food and water ad libitum. Two groups of 24 female ND4 Swiss Webster mice (20-23 g, Harlan Laboratory, Indianapolis, Ind.) were intravenously administrated PB liposomes and aqueous solution (USP), respectively, at approximately 3 mg/kg through the tail vein. At each time point (0.1, 0.5, 1, 2, 4 and 6 h post-dose), four mice were sacrificed for blood and epithelial lining fluid sample collection. The blood samples were clotted on crushed ice and the serum was obtained by centrifugation. The epithelial lining fluid samples were obtained by bronchoalveolar lavage. All the serum and epithelial lining fluid samples were stored at −80° C. until analysis.
# (§2) Four major polymyxin B components in serum and epithelial lining fluid samples were assayed by a validated UPLC-MS/MS method. An Acquity UPLC HSS C18 column was used with 0.1% formic acid/acetonitrile as mobile phases. Analysis was performed in positive ionization mode with multiple reactions monitoring (MRM) scan type. Briefly, the serum and epithelial lining fluid samples (200 μl) were spiked with 20 μl of carbutamide (internal standard). Two hundred μl of 5% trichloroacetic acid was added to precipitate the proteins, followed by 1 min of vortexing. After centrifugation at 18,000× g for 15 min, the supernatant was transferred to a new tube and evaporated to dryness under a stream of nitrogen. The residue was reconstituted in 100 μl of mobile phase (acetonitrile: 0.1% formic acid=50:50) and then centrifuged at 18,000×g for 15 minutes. Ten μl of supernatant was injected into the UPLC-MS/MS for quantitative analysis. The linear concentration range was 6.5-3200 ng/ml for both serum and epithelial lining fluid samples. The intra-day and inter-day variance was less than […] for all the components in both serum and epithelial lining fluid. The concentration of drug in epithelial lining fluid (CELF) was corrected using the equation: CELF=CBALF× Ureaserum/UreaBALF, where UreaBALF and Ureaserum were the concentrations of urea in bronchoalveolar lavage fluid (BALF) and serum, respectively (18).
# (§3) Concentrations of urea in serum and BALF samples were quantified with a commercially available assay kit (Quantichrom™ Urea Assay kit, BioAssay System, Hayward, Calif.) and measured on a Synergy2 microplate reader (BioTek Instrument, Winooski, Vt.). Drug exposures observed in both serum and epithelial lining fluid were normalized by the specific dose of each batch of liposomes to account for the variances among different pharmacokinetic experiments. Naïve data averaging was used; the best-fit pharmacokinetic parameters as well as drug exposure in serum and ELF were calculated by WinNonlin 3.3 (Pharsight Corporation, Mountain View, Calif.) using a one-compartment model and non-compartmental analysis, respectively. Statistical differences between liposome and aqueous solution were determined by Mann-Whitney test at the significance level of p≤0.05.
# [2] = Serum pharmacokinetics after intravenous polymyxin B liposomes or aqueous solution (USP); type: in vivo, Swiss Webster mice; details: for AUC(0-t): n = 4, normalized by dose, read-out: AUC0-6 h
# Experimental: as §1, §2, §3
# [3] = Kidney exposure after IV polymyxin liposome or solution (USP); type: in vivo, mice; details: for AUC0-6 h, kidney / AUC(0-t): female, ND4 Swiss Webster
# Lrp2/megalin = test: Urinary excretion of megalin after maleate administration (ELISA); type: in vivo; details: rats, single 400 mg/kg intraperitoneal dose
# Experimental: Three rats were housed individually in separate metabolic cages 24 h prior to maleate pretreatment. A single dose of 400 mg/kg of sodium maleate was given intraperitoneally; this was previously reported to induce reversible ultrastructural modifications in the apical brush border membrane of proximal renal tubules (34). To study megalin urinary excretion, cumulative urine was collected daily from day −1 to day 15. The urine samples were spun down to remove particulate matter. Subsequently, the urine samples were aliquoted and stored at −80° C. prior to analysis. The samples were thawed, and urinary Lrp2/megalin concentrations were quantitatively measured using a commercially available ELISA kit for megalin. For each animal, the daily megalin concentrations were expressed as a normalized ratio to the baseline megalin value.
# proximal tubules = test: Electron microscopy of maleate-treated kidney sections; type: in vivo; details: rats
# Experimental: For morphological studies, one animal was sacrificed at 3 h and another at 14 days after maleate administration to collect the kidneys. The harvested kidneys were submitted for electron microscopic studies. Tissue samples from both renal cortical and medullary regions were fixed in 2% glutaraldehyde at 4° C. overnight, followed by additional fixation in osmium tetroxide. The renal tissue was dehydrated and embedded in epoxy resin. Approximately 1-μm pilot sections were stained with toluidine for selection of the areas for further ultrastructural examination. Thin sections of these selected areas were cut and subjected to examination under a JEOL 300 electron microscope at 80 kV. The kidneys from two naive rats were harvested, processed in a similar fashion, and used as controls.
# [4] = female, ND4 Swiss Webster, mouse, in vivo, iv
# [5] = mouse, in vivo, iv, 3 mg/kg, AUC0-6 h, kidney
SMILES,"time post-dose up to which the component could be quantified in ELF ([1]; mouse, in vivo, iv)","AUC ratio (liposome:solution), epithelial lining fluid ([1]; mouse, in vivo, iv, 3 mg/kg)","half-life [2, 4] [min]","T1/2 (elimination half-life) ([2]; mouse, in vivo, iv) [min]","AUC0-6 h, kidney ([3]; mouse, in vivo, iv, 3 mg/kg) [ng·h/mL]","AUC(0-t) [3, 5] [ng·h/mL]","AUC ratio (liposome:solution), kidney ([3]; mouse, in vivo, iv, 3 mg/kg)",also measured
"CC(C)CCCCC(=O)N[C@@H](CCN)C(=O)N[C@H](C(=O)N[C@@H](CCN)C(=O)N[C@H]1CCNC(=O)[C@H]([C@@H](C)O)NC(=O)[C@H](CCN)NC(=O)[C@H](CCN)NC(=O)[C@H](CC(C)C)NC(=O)[C@@H](Cc2ccccc2)NC(=O)[C@H](CCN)NC1=O)[C@@H](C)O [PB2, polymyxin B2] ({Heptanoyl(6-Me)}-[Dab]T[Dab][Dab][Dab][dF]L[Dab][Dab]T; lactam 4-C (inferred))",up to 2 h,11.10,26.4,12.6,12240,9440,0.77,"clearance [2, 4]: 5.14 mL/min/kg; Cl (clearance) ([2]; mouse, in vivo, iv): 14.998 mL/min/kg; Vss (volume of distribution at steady state) ([2]; mouse, in vivo, iv): 0.27474 L/kg"
"CC[C@H](C)CCCCC(=O)N[C@@H](CCN)C(=O)N[C@H](C(=O)N[C@@H](CCN)C(=O)N[C@H]1CCNC(=O)[C@H]([C@@H](C)O)NC(=O)[C@H](CCN)NC(=O)[C@H](CCN)NC(=O)[C@H]([C@@H](C)CC)NC(=O)[C@@H](Cc2ccccc2)NC(=O)[C@H](CCN)NC1=O)[C@@H](C)O [ile-PB1, isoleucine polymyxin B1] (X1-[Dab]T[Dab][Dab][Dab][dF]I[Dab][Dab]T; lactam 4-C)",up to 4 h,4.55,25.2,17.4,4980,4160,0.84,–
"CCCCCCCC(=O)N[C@@H](CCN)C(=O)N[C@H](C(=O)N[C@@H](CCN)C(=O)N[C@H]1CCNC(=O)[C@H]([C@@H](C)O)NC(=O)[C@H](CCN)NC(=O)[C@H](CCN)NC(=O)[C@H](CC(C)C)NC(=O)[C@@H](Cc2ccccc2)NC(=O)[C@H](CCN)NC1=O)[C@@H](C)O [PB3, polymyxin B3] (Octanoyl-[Dab]T[Dab][Dab][Dab][dF]L[Dab][Dab]T; lactam 4-C)",up to 2 h,4.92,18,16.8,–,–,0.37,–
"O=C([O-])/C=C\C(=O)[O-].[Na+].[Na+] [maleate, Sodium maleate dibasic salt]",–,–,–,–,–,–,–,elevation in the level of urinary megalin (Lrp2/megalin): approximately 20 times the baseline measurement; time until urinary megalin levels reverted to baseline (Lrp2/megalin): approximately 11 days; electron microscopic findings in kidney (proximal tubules; two weeks after 400 mg/kg intraperitoneally): no significant changes; electron microscopic findings in kidney (proximal tubules; within 3 h after 400 mg/kg intraperitoneally): morphological and ultrastructural changes in the proximal tubules
"CC[C@H](C)CCCCC(=O)N[C@@H](CCN)C(=O)N[C@H](C(=O)N[C@@H](CCN)C(=O)N[C@H]1CCNC(=O)[C@H]([C@@H](C)O)NC(=O)[C@H](CCN)NC(=O)[C@H](CCN)NC(=O)[C@H](CC(C)C)NC(=O)[C@@H](Cc2ccccc2)NC(=O)[C@H](CCN)NC1=O)[C@@H](C)O [PB1, polymyxin B1] (X1-[Dab]T[Dab][Dab][Dab][dF]L[Dab][Dab]T; lactam 4-C)",–,–,–,–,–,–,–,"AUC ratio (liposome:solution), epithelial lining fluid ([1]; ELF, mice, IV 3 mg/kg): 6.21; AUC(0-t) ([1]; mouse, in vivo, iv, 3 mg/kg, ELF, mice, IV 3 mg/kg polymyxin liposome): 9750 ng·h/mL; AUC(0-t) ([1]; mouse, in vivo, iv, 3 mg/kg, ELF, mice, IV 3 mg/kg polymyxin solution (USP)): 1570 ng·h/mL; half-life ([2]; female, ND4 Swiss Webster, mouse, in vivo, 3 mg/kg, serum, mice, IV polymyxin B liposomes, one-compartment model, read-out: T1/2 (elimination half-life) (converted)): 36 min; AUC(0-t) ([2]; female, ND4 Swiss Webster, mouse, in vivo, iv, 3 mg/kg, serum, mice, IV polymyxin B liposomes approx. 3 mg/kg): 4770 ng·h/mL; AUC(0-t) ([2]; female, ND4 Swiss Webster, mouse, in vivo, iv, 3 mg/kg, serum, mice, IV polymyxin B solution (USP) approx. 3 mg/kg): 2760 ng·h/mL; total clearance ([2]; mice, IV aqueous solution approx. 3 mg/kg): 1.4±0.5 I/h/kg; total clearance ([2]; mice, IV liposomal formulation approx. 3 mg/kg): 0.6±0.3 I/h/kg; AUC(0-t) ([3]; mouse, in vivo, iv, 3 mg/kg, kidney, mice, IV 3 mg/kg polymyxin liposome, n = 24, read-out: AUC0-6 h, kidney): 28400 ng·h/mL; AUC(0-t) ([3]; mouse, in vivo, iv, 3 mg/kg, kidney, mice, IV 3 mg/kg polymyxin solution (USP), n = 24, read-out: AUC0-6 h, kidney): 34200 ng·h/mL; AUC ratio (liposome:solution), kidney ([3]; kidney, mice, IV 3 mg/kg): 0.83"
